# Measured values from patent publication US20130029981A1, “COMPOUNDS, COMPOSITIONS, AND METHODS FOR CONTROLLING BIOFILMS” (Katholieke Universiteit Leuven, priority 2009, published 2013).
# Read-outs that look alike come from different tables or passages of the source.
# What was measured:
# [1] = system: S. Typhimurium ATCC14028; experiment: Static peg assay for prevention of biofilm formation (Calgary device, crystal violet); format: cell-based, Salmonella Typhimurium
# Method in brief: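 Calgary 96-peg device, ca. 10^6 cells of ATCC14028 per well in TSB 1/20 for 24 h at 25° C (or 48 h at 16° C, medium and compound renewed at 24 h), or in CFA broth for 24 h at 37° C, static, with two-fold compound dilutions. Crystal violet stain, acetic acid extraction, OD570. IC50 from 2–3 independent experiments.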
# [2] = system: Salmonella Typhimurium ATCC 14028; experiment: Antibacterial activity: growth inhibition, OD600 after 24 h (GIC50); format: cell-based
# Description: Evaluation of antibacterial-inhibitory activity of some substituted 2-amino-1H-imidazoles of the invention was carried out by diluting an overnight culture of Salmonella Typhimurium ATCC 14028 into a liquid medium. 200 μl of the diluted overnight culture was added to each well of a microtiter plate together with different concentrations of the test compound (1/2 dilution series of the compound). After an incubation of 24 hours the optical density at 600 nm of each well was determined with a microtiter plate reader.
# Starting from a 40 mM stock solution of each compound in DMSO, two-fold serial dilutions in 100 μl liquid broth per well were prepared in dublicate in sterile transparant microtiter plates. The broth used was TSB 1/20 for measurements at 25° C. and CFA (in case of Salmonella Typhimurium) and LBNS (in case of Pseudomonas aeruginosa) for measurements at 37° C. Subsequently an overnight culture of the bacteria (S. Typhimurium ATCC14028 or P. aeruginosa PA14) was diluted 1/200 into the corresponding liquid broth and 100 μl was added to each well of the microtiterplate resulting in a total amout of 200 μl medium per well. After an incubation of 24 hours the optical density at 600 nm of each well was determined with a microtiter plate reader (VERSAmax, Molecular Devices).
# Evaluation of antibacterial-inhibitory activity of some substituted imidazo[1,2-a]pyrimidinium bromide salts of the invention was carried out by diluting an overnight culture of Salmonella Typhimurium ATCC14028 or Pseudomonas aeruginosa PA141/200 into liquid medium. 200 μl of the diluted overnight culture was added to each well of a microtiterplate together with different concentrations of the test compound (1/2 dilution series of the compound). After an incubation of 24 hours the optical density at 600 nm of each well was determined with a microtiter plate reader.
# [3] = system: S. Typhimurium ATCC14028; experiment: Bioscreen assay: influence on planktonic growth curve; format: cell-based, Salmonella Typhimurium; parameters: key: x: no influence on the planktonic growth at the IC50 for biofilm inhibition; ∘: planktonic growth is retarded at the IC50 for biofilm inhibition; conditions: planktonic growth at the IC50 for biofilm inhibition, 25° C.
# Text: Some of the tested compounds show a concentration range in which biofilm formation is inhibited but no effect on planktonic growth is observed. These compounds are particularly interesting for prevention of biofilm formation since the development of resistance against these compounds is less likely. Table 8 indicates whether the different compounds have an effect on the planktonic growth of the bacteria at the IC50 for biofilm inhibition. To construct Table 8, the effect of the tested compounds on the growth curve of the bacteria was determined at a concentration equal to the IC50 for biofilm inhibition, by using the Bioscreen system available from Oy Growth Curves Ab Ltd). The Bioscreen device from Oy Growth Curves Ab Ltd was used for measuring the influence of the chemical compounds on the planktonic growth of Salmonella Typhimurium and Pseudomonas aeruginosa. The Bioscreen is a computer controlled incubator/reader/shaker that uses 10×10 well microtiter plates and measures light absorbance of each well at a specified wave length in function of time. An overnight culture of S. […] The broth used was TSB 1/20 for the experiments at 16° C. and 25° C. For experiments at 37° C. CFA medium was used for S. […] As a control 3 μl of the appropriate solvent (DMSO or EtOH) was also added to the plate in 3- or 4-fold. The microtiter plate was incubated in the Bioscreen device at 16° C., 25° C. or 37° C. for at least 36 hours, with continious medium shaking. The absorbance of each well was measured at 600 nm each 15 minutes. Excel was used to generate the growth curves for treated the treated wells and the untreated control wells. Some of the compounds show a concentration range in which biofilm formation is inhibited but no effect on the planktonic growth is observed. Table 14 indicates if the different compounds have an effect on the planktonic growth of the bacteria at the IC50 for biofilm inhibition. To construct this table the effect of the compounds on the growth curve of the bacteria was determined at a concentration equal to the IC50 for biofilm inhibtion, by using the Bioscreen system from Oy Growth Curves Ab Ltd.
# [4] = system: Pseudomonas aeruginosa PA14; experiment: Static peg assay for prevention of biofilm formation (Calgary device, crystal violet); format: cell-based; conditions: P. aeruginosa PA14, 25° C.; read-out: IC50 for biofilm inhibition (25° C.)
# Method in brief: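 P. aeruginosa PA14 overnight TSB culture diluted 1:100 into broth with two-fold compound dilutions, biofilms grown 24 h static on polystyrene pegs of a Calgary device at 25 °C (TSB 1/20), 30 °C or 37 °C (CFA and/or LBNS). Biofilm quantified by crystal violet, extracted with 30% acetic acid, A570.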
# [5] = system: S. Typhimurium SL1344; experiment: as above; format: cell-based; conditions: Salmonella enterica, SL1344, 16° C., read-out: IC50 biofilm inhibition
# Description: After an incubation period of 24 hours at 25° C. or 37° C. or 48 hours at 16° C. the biofilms were visualized by crystal violet staining. […] Biofilm formation assays were carried out at 16° C., 25° C. and 37° C. […] Subsequently, an overnight culture of S. […] The pegged lid was placed on the microtiter plate and the plate was incubated for 48 hours at 16° C. or for 24 hours at 25° C. without shaking. During this incubation period biofilms were formed on the surface of the pegs. In case of the assay at 16° C., after 24 hours the lid was transferred into a new plate with medium and the specific molecules used for testing. […] The remaining attached bacteria were stained for 30 minutes with 200 μl 0.1% (w/v) crystal violet in an isopropanol/methanol/PBS solution (v/v 1:1:18). Excess stain was rinsed off by placing the pegs in a 96-well plate filled with 200 μl distilled water per well. After the pegs were air dried (30 min), the dye bound to the adherent cells was extracted with 30% glacial acetic acid (200 μl). The OD570 of each well was measured using the VERSAmax microtiter plate reader.
# [6] = system: S. Typhimurium SL1344; experiment: Growth inhibition of planktonic cells in the peg assay plate (OD600); format: cell-based; conditions: Salmonella enterica, SL1344, 16° C.
# [7] = system: S. Typhimurium ATCC14028; experiment: as above; format: cell-based, Salmonella Typhimurium; conditions: Salmonella enterica, ATCC14028, 16° C.
# [8] = Salmonella enterica, 25° C., Table 11, read-out: IC50 (biofilm formation)
# [9] = Salmonella enterica, 25° C., Table 14, read-out: IC50 biofilm inhibition
# [10] = S. Typhimurium ATCC 14028, 25° C., read-out: IC50 for biofilm inhibition (25° C.)
# [11] = OD600 after 24 hours of growth, read-out: GIC(50)
# [12] = Salmonella enterica, ATCC14028, 16° C., read-out: IC50 biofilm inhibition
smiles,measurement,setting,value
"COc1ccc(CCN2c3nccc[n+]3CC2(O)c2ccc([N+](=O)[O-])cc2)cc1OC (stereo not shown) [R1=2-(3,4-diMeO—Ph)Et, R3=4-NO2-Ph, R4=H, 1-(2-(3,4-dimethoxyphenyl)ethyl)-2-hydroxy-2-(4-nitrophenyl)-2,3-dihydro-1H-imidazo-[1,2-a]pyrimidin-4-ium bromide]",IC50,[1]; [8],127 µM
same,IC50,[1]; [9],127 µM
same,IC50,"[2]; Salmonella enterica, 25° C.",100 to 200 µM
"COc1ccc(C2(O)C[n+]3cccnc3N2C2CCCCC2)cc1 (stereo not shown) [R1=Cyclohexyl, R3=4-MeO—Ph, R4=H, 1-cyclohexyl-2-hydroxy-2-(4-methoxyphenyl)-2,3-dihydro-1H-imidazo[1,2-a]pyrimidin-4-ium bromide]",IC50,[1]; [8],112 µM
same,IC50,[1]; [9],112 µM
same,IC50,"[2]; Salmonella enterica, 25° C.",50 to 100 µM
"CSc1ccc(C2(O)C[n+]3cccnc3N2C2CCCCC2)cc1 (stereo not shown) [R1=Cyclohexyl, R3=4-MeS—Ph, R4=H, 1-cyclohexyl-2-hydroxy-2-(4-methylthiophenyl)-2,3-dihydro-1H-imidazo[1,2-a]pyrimidin-4-ium bromide]",IC50,[1]; [8],118 µM
same,IC50,[1]; [9],118 µM
same,IC50,"[2]; Salmonella enterica, 25° C.",100 to 200 µM
"OC1(c2ccc(Br)cc2)C[n+]2cccnc2N1C1CC1.[Br-] (stereo not shown) [R1=Cyclopropyl, R3=4-Br—Ph, R4=H, 1-cyclopropyl-2-hydroxy-2-(4-bromophenyl)-2,3-dihydro-1H-imidazo[1,2-a]-pyrimidin-4-ium bromide]",IC50,[1]; [8],27 µM
same,IC50,[1]; [9],27 µM
same,IC50,"[2]; Salmonella enterica, 25° C.",25 to 50 µM
same,Influence on growth,[3],x
"CCCCNc1nc(-c2ccc(F)cc2)c[nH]1 [R1=H, R2=Butyl, R3=H, R4=p-F—Ph]",IC50,[1]; [10],16 µM
same,IC50,[4],6 µM
"Brc1ccc(-c2c[nH]c(NC3CCCC3)n2)cc1 [R1=H, R2=cyclopentyl, R3=H, R4=p-Br—Ph]",IC50,[2]; [11],50 to 100 µM
"Clc1ccc(-c2c[nH]c(NC3CCCC3)n2)cc1 [R1=H, R2=cyclopentyl, R3=H, R4=p-Cl—Ph]",IC50,[1]; [10],4 µM
same,IC50,[2]; [11],45 µM
"CC1[n+]2cccnc2N(c2ccccc2)C1(O)c1ccc(Br)cc1 (stereo not shown) [R1=Ph, R3=4-Br—Ph, R4=Me, 1-phenyl-2-hydroxy-2-(4-bromophenyl)-3-methyl-2,3-dihydro-1H-imidazo[1,2-a]pyrimidin-4-ium bromide]",IC50,[1]; [8],57.5 µM
same,IC50,[1]; [9],57.5 µM
same,IC50,"[2]; Salmonella enterica, 25° C.",50 to 100 µM
"CCCCN1c2nccc[n+]2CC1(O)C(c1ccccc1)c1ccccc1 (stereo not shown) [R1=n-butyl, R3=dimethylphenyl, R4=H, 1-butyl-2-hydroxy-2-(diphenyl-methyl)-2,3-dihydro-1H-imidazo[1,2-a]pyrimidin-4-ium bromide]",IC50,[1]; [9],72.1 µM
same,IC50,"[2]; Salmonella enterica, 25° C.",50 to 100 µM
c1ccc(Sc2ccc3c(c2)OCO3)c(CNC2=NCCN2)c1 [Specs3-1],IC50,[5],~65.9 µM
same,IC50,[1]; [12],42 µM
same,IC50,[6],417 µM
same,IC50,[7],417 µM
Fc1ccccc1Sc1ccccc1CNC1=NCCN1 [Specs3-3],IC50,[5],68.1 µM
same,IC50,[1]; [12],32.9 µM
same,IC50,[6],265 µM
same,IC50,[7],265 µM
